Laboratory results reported in patent publication US12291581B2, “Serpin peptides and methods of using the same” (SERPIN PHARMA, LLC, priority 2012, dated 2025).
“Also recorded” adds a separate entry of the source.

Tests used:
[1] = Pharmacokinetic profile after intravenous injection, plasma by LC/MS/MS; type: in vivo, rats; conditions: IV 5 mg/kg
Experimental: In performing the assay, three normal rats were injected intravenously with 5 mg/kg SP16 and the plasma concentration of SP16 established at 8 time points following the injection. […] The assay was executed by Apredica, Boston, Mass.

[2] = tested on: 111 in vitro assay targets (human receptors); assay: Human receptor panning, GenSEP Explorer panel
Text: In addition, we also performed a profile using human receptor panning. The GenSEP Explorer panel contains 111 in vitro assay targets carefully selected to assess drug/chemical biological activities. Assay categories include GPCRs, Voltage-Gated Ion Channels, Ligand-Gated Ion Channels, Neurotransmitter transporters, Nuclear Receptors and Steroids as well as a diverse set of biochemical targets including phosphodiesterases, kinases and other relevant enzymes.

hERG = hERG (Homo sapiens, UniProt Q12809); type: cell-based
hERG, sequence (Q12809 whole entry): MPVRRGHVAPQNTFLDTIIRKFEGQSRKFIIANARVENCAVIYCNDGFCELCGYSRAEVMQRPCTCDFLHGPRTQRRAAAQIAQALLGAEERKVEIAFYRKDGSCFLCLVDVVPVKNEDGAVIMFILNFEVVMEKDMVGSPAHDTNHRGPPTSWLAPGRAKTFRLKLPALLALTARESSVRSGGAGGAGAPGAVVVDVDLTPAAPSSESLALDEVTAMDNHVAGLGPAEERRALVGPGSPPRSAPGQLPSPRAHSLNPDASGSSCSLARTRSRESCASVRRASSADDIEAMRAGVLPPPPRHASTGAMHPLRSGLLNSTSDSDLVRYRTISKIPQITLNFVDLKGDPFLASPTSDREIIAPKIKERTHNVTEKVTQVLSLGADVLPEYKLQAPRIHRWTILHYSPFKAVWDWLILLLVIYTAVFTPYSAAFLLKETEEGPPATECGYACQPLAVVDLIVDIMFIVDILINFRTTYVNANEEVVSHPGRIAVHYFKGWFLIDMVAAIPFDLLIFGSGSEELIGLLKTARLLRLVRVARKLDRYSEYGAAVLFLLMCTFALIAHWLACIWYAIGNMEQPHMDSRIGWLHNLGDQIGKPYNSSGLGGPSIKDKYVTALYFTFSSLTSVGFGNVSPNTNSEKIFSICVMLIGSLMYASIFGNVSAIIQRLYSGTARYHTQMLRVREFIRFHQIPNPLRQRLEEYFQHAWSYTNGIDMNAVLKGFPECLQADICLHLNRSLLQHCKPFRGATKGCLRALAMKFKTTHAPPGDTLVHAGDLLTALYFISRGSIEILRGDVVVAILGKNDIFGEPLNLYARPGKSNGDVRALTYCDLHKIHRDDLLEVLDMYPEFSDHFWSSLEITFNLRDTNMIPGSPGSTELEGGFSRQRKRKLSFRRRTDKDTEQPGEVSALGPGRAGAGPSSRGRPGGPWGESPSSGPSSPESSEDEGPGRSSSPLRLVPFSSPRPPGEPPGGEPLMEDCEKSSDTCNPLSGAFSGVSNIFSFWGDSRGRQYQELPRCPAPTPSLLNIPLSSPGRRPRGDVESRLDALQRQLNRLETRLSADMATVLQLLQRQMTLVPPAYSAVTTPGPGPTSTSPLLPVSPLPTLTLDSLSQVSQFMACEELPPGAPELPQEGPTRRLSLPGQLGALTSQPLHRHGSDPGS
Text: The SP16 safety profile also included hERG data. […] The study was executed by Apredica, Boston, MA.

TLR-2 = biological target: T1, TLR-2 (Mus musculus, UniProt Q9QUN7); assay: TLR-2 indicator cell line assay (HEK-Blue mTLR2), secreted alkaline phosphatase; type: cell-based; conditions: 20 μg/ml peptide, 24 hours
T1 construct: host or cells: HEK-Blue mTLR2 (HEK293-derived reporter line, SEAP read-out)
T1 sequence (Q9QUN7 25-784): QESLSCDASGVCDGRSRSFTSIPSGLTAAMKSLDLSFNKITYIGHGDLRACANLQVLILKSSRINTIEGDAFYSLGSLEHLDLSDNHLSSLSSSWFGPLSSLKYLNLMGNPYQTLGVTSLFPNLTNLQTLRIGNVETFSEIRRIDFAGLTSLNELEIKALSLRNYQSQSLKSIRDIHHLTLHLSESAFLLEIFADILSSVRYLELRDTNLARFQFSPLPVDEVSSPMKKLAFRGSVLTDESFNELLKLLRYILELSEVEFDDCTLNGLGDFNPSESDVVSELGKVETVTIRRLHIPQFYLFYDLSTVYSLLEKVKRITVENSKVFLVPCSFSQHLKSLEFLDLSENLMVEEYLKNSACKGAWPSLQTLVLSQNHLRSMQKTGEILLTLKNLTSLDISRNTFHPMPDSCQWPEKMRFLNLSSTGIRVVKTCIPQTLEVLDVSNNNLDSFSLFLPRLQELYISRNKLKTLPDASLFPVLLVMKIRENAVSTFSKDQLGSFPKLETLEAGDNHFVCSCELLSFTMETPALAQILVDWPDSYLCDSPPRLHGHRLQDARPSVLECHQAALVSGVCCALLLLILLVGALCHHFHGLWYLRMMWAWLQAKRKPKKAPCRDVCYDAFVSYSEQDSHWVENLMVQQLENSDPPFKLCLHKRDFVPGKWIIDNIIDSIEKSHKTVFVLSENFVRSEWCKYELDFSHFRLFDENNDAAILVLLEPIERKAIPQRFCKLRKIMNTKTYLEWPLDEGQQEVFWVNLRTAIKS
Experimental: Graph summarizing representative data from assays with an engineered TLR-2 indicator cell line (HEK-Blue™ mTLR2, Invivogen). Cells were incubated with the indicated concentrations of peptide for 24 hours. Upon TLR2 activation, the cells secrete alkaline phosphatase which can be assayed. The assay was done in triplicate and averages with standard deviations are plotted.
Graph summarizing data from an experiment where an engineered TLR-2 indicator cell line (HEK-Blue™ mTLR2, Invivogen) was used to test the impact of substituting amino acid residues of the SP16 peptide with alanine (“alanine scan”). Cells were incubated with 20 μg/ml of the indicated peptides for 24 hours. Upon TLR2 activation, the cells secrete alkaline phosphatase which can be assayed. The assay was done in triplicate and averages are plotted. Peptide sequences are shown in the following figure. *p<0.05, compared with scrambled control (SP34).
We also performed a peptide optimization assay using an alanine scan with the TLR-2 assay. Data was obtained using an experiment with an engineered TLR-2 indicator cell line (HEK-BLUE™ mTLR2, Invivogen). Cells were incubated with the 20 μg/ml of the indicated peptides for 24 hours. Upon TLR2 activation, the cells secrete alkaline phosphatase, which can be assayed. The assay was done in triplicate and averages are plotted. […]

LPS challenged mice = assay: Mouse LPS challenge (sepsis/inflammation) model, serum TNF-alpha by ELISA; type: in vivo; conditions: for anti-inflammatory effect when administered to a mouse model of sepsis (FIG. 10): Table B peptides; for TNF-alpha levels in LPS challenged mice, alanine scanned SP16 peptides (FIG. 10B): compared with Dexamethasone positive control
Experimental: FIGS. 10A and B. FIG. 10A presents exemplary peptides that were used to reduce TNF-alpha levels in mice subjected to an LPS challenge. […] The mice were treated with alanine scanned SP16 peptide. […] Based on this alanine screen, and without wishing to be bound by a theory, it appears that the C- and N-terminal amino acids contribute to the anti-inflammatory effect of the SP16 peptide. […] Groups of 3 animals were injected with 0.2 mg/kg peptide and subjected to LPS challenge. Serum TNF-alpha levels were determined by ELISA. Several peptides provided the same level of protection as 1 mg/kg Dexamethasone.
The ability of peptide drugs was tested to for their potential for the reduction of inflammatory cytokines following treatment with purified bacterial lipopolysaccharide (LPS)—a major component of bacterial cell wall of Gram-negative bacteria. A model of inflammation was used wherein mice were injected with LPS, which induced a transient immune response and a surge of serum inflammatory cytokines. The immune response peaks after 90 minutes and subsides after 24 hours. The levels of key serum inflammatory markers were compared between mice treated and untreated with LPS 90 minutes after injection.
We designed 18 different peptides based on the hAAT sequence (Accession #AAB59371), and had these synthesized using conventional FMOC chemistry. To assess in vivo anti-inflammatory and therapeutic potential, the peptides were tested in a mouse lipopolysaccharide (LPS) challenge model with serum TNFα levels as readout. Using dexamethasone as reference, groups of 3 animals were IP injected with 0.2 mg/kg peptide 2 hours prior to an LPS challenge, and serum TNFα levels determined 30 min after the LPS challenge, by ELISA. The best performing peptide reduced serum TNFα levels equivalent to those achieved with 1 mg/kg dexamethasone. Next, shortened versions of this peptide were synthesized, tested in the mouse LPS challenge model, and a 17 amino acid peptide, SP16, emerged as a lead development candidate for further characterization. Next, SP16 was tested in a lethal endotoxemia model, which models endotoxemia following acute radiation exposure, where Gram negative bacteria leaking from the gastro-intestinal system can cause lethal endotoxemia.
Mice were injected with 0.5, 0.1, 0.02 and 0.004 mg of each peptide. Mice were also treated with dexamethasone as a positive control and vehicle as a negative control. Two hours later each mouse was injected with LPS. Samples were taken 90 minutes after LPS injection.
To evaluate the effect of different amino acids in the SP16 peptide for the immunomodulating effect, we created an alanine screen. […] The peptides wherein the substitution occurred within amino acids 4-14 of SP16, appeared to maintain and rather improve their capacity to reduce TNF-alpha levels compared to the control Dexamethasone. The LPS mouse model is an established model for sepsis in humans and thus we conclude that peptides wherein the amino acids 1-3 and 15-17 are present, can be effectively used in humans to treat or prevent sepsis in conditions, such as burns or acute radiation, which expose humans to a high risk of developing endotoxemia.

NOD mice = assay: NOD mouse spontaneous autoimmune (type I) diabetes model; type: in vivo; conditions: groups of 12 NOD mice, vs scrambled control peptide
Experimental: Groups of 12 animals were injected with SP16, hAAT or scrambled control peptide. Non-fasted blood glucose levels were measured twice a week and animals with two consecutive readings greater than 300 mg/dl were considered diabetic.
NOD (non-obese diabetic) mice spontaneously develop overt, insulin-dependent type I diabetes. The NOD model is recommended by the FDA for preclinical testing of therapeutic agents for type I diabetes. Disease onset typically occurs at 12-14 weeks of age, with peri-insulitis detectable from about 4 weeks of age and developing into severe insulitis at 10 weeks of age. The autoimmune destruction of β-cells is thought to arise from dysregulation of multiple tolerance pathways, leading to islet infiltration with monocytes, predominantly CD4^+ and CD8^+ T cells, and insulitis, with subsequent hypoinsulinemia and hyperglycemia.

CC[C@H](C)[C@H](NC(=O)[C@H](CCSC)NC(=O)[C@H](CC(C)C)NC(=O)[C@H](Cc1ccccc1)NC(=O)[C@@H](NC(=O)[C@H](Cc1ccccc1)NC(=O)[C@@H]1CCCN1C(=O)[C@H](CCCCN)NC(=O)[C@H](CC(N)=O)NC(=O)[C@H](Cc1ccccc1)NC(=O)[C@H](CCCCN)NC(=O)[C@@H](N)C(C)C)C(C)C)C(=O)N[C@@H](CCC(=O)O)C(=O)N[C@@H](CCC(N)=O)C(=O)N[C@@H](CC(N)=O)C(=O)N[C@H](C(=O)N[C@@H](CCCCN)C(=O)O)[C@@H](C)O [SP16]
Last Time point ([1]; normal rats): 8.0
t1/2 ([1]; normal rats): 1.9 h
Cmax ([1]; three normal rats, plasma): 2500 ng/mL
T1/2 (half-life) ([1]; three normal rats, plasma): 1.9 h
effect on the whole GenSEP Explorer panel ([2]; 111 human receptors): not able to identify any hits; also recorded: no effect on 111 human receptors
Percent inhibition ([2]; Brain/gut peptides, 15 receptors tested): Insignificant
Percent inhibition ([2]; Cell-Based, Functional, 1 receptor tested): Insignificant
Percent inhibition ([2]; Enzymes, 20 receptors tested): Insignificant
Percent inhibition ([2]; Enzymes, Kinases, 11 receptors tested): Insignificant
Percent inhibition ([2]; Growth factors & hormones, 2 receptors tested): Insignificant
Percent inhibition ([2]; Ion Channels, 8 receptors tested): Insignificant
Percent inhibition ([2]; Neurotransmitter Related, 47 receptors tested): Insignificant
Percent inhibition ([2]; Second Messengers, 3 receptors tested): Insignificant
Percent inhibition ([2]; Steroids, 4 receptors tested): Insignificant
comment on hERG inhibition (hERG; hERG FastPatch, 0.008-25 μM): No concentration-dependent
IC50 (hERG; hERG FastPatch, test conc 0.008-25 μM (SP16), 0.01-10 μM (Quinidine)): > 25 µM
hERG inhibition (hERG; up to 25 μM): does not impact hERG activity; also recorded: does not inhibit hERG

A A A N K P F V F L M I E Q N T K (AAANKPFVFLMIEQNTK; listed as Homo sapiens) [SP37, SP16 with residues 1-3 substituted with alanines]
impact on TLR-2 signaling, alanine scan, FIG. 12/13 (TLR-2): no impact on TLR2

V K F A A A F V F L M I E Q N T K (VKFAAAFVFLMIEQNTK; listed as Homo sapiens) [SP40, alanine scanned SP16 peptide]
anti-inflammatory effect when administered to a mouse model of sepsis (FIG. 10) (LPS challenged mice): particularly good anti-inflammatory effect
TNF-alpha levels in LPS challenged mice, alanine scanned SP16 peptides (FIG. 10B) (LPS challenged mice): reduce TNF-alpha levels more than Dexamethasone

V K F N K P A A A L M I E Q N T K (VKFNKPAAALMIEQNTK; listed as Homo sapiens) [SP43, alanine scanned SP16 peptide]
anti-inflammatory effect when administered to a mouse model of sepsis (FIG. 10) (LPS challenged mice): particularly good anti-inflammatory effect
TNF-alpha levels in LPS challenged mice, alanine scanned SP16 peptides (FIG. 10B) (LPS challenged mice): reduce TNF-alpha levels more than Dexamethasone

V K F N K P F V F A A A E Q N T K (VKFNKPFVFAAAEQNTK; listed as Homo sapiens) [SP46, alanine scanned SP16 peptide]
anti-inflammatory effect when administered to a mouse model of sepsis (FIG. 10) (LPS challenged mice): particularly good anti-inflammatory effect
TNF-alpha levels in LPS challenged mice, alanine scanned SP16 peptides (FIG. 10B) (LPS challenged mice): reduce TNF-alpha levels more than Dexamethasone

V K F N K P F V F L M I A A A T K (VKFNKPFVFLMIAAATK; listed as Homo sapiens) [SP49, alanine scanned SP16 peptide]
anti-inflammatory effect when administered to a mouse model of sepsis (FIG. 10) (LPS challenged mice): particularly good anti-inflammatory effect
TNF-alpha levels in LPS challenged mice, alanine scanned SP16 peptides (FIG. 10B) (LPS challenged mice): reduce TNF-alpha levels more than Dexamethasone

hAAT: human alpha-1-antitrypsin, parent protein of SP16
incidence / development of diabetes (two consecutive non-fasted glucose readings greater than 300 mg/dl) (NOD mice): delayed and reduced the incidence of diabetes
